In patent publication US20250051300A1, “GRAM-NEGATIVE SPECIFIC ANTIBIOTICS SPARING EFFECT ON GUT MICROBIOME” (THE BOARD OF TRUSTEES OF THE UNIVERSITY OF ILLINOIS, priority 2021, published 2025):

Key:
gut microbiome = conditions: mouse, in vivo, po
[1] = system: Bacteroides cellulosilyticus; experiment: MIC, gut commensal bacteria, micro-dilution broth
K. pneumoniae BAA-1705 = experiment: Bacterial sepsis survival model; assay type: in vivo, CD-1 mice; conditions: carbapenem-resistant K. pneumoniae, 200 mg/kg IP once daily for 3 days (FIG. 7D)
Bifidobacterium longum = experiment: MIC, gut commensal bacteria, micro-dilution broth
Lactobacillus reuteri = experiment: MIC, gut commensal bacteria, micro-dilution broth
[2] = system: Faecalibacterium prausnitzii; experiment: MIC, gut commensal bacteria, micro-dilution broth
[3] = system: Stenotrophomonas maltophilia; experiment: MIC, gut commensal bacteria, micro-dilution broth
[4] = system: E. coli BW25113 LolC/LolE mutants; experiment: MIC against lolamycin-resistant LolCDE mutants; assay type: cell-based, Escherichia coli

With `Cc1cc(-c2c[nH]nc2-c2cccc(OCc3cccc(C#N)c3)c2)cc(C)n1` [Compound 12, 3-((3-(4-(2,6-dimethylpyridin-4-yl)-1H-pyrazol-3-yl)phenoxy)methyl)benzonitrile] the “effect on gut microbiome taxonomic composition” value (gut microbiome) was “did not cause any drastic changes in taxonomic composition”, the MIC ([1]; Bacteroides cellulosilyticus) was over 128 µg/mL and the MIC ([1]; Bacteroides cellulosilyticus KLE 2342, BHI-ych, listed as Lolamycin) was over 128 µg/mL. The “efficacy, survival” value (K. pneumoniae BAA-1705) was “showed the efficacy”, the MIC (Bifidobacterium longum; Bifidobacterium longum ATCC BAA-999, BHI-ych, listed as Lolamycin) was over 128 µg/mL and the MIC (Bifidobacterium longum; Bifidobacterium longum, ATCCBAA999) was over 128 µg/mL. For the same compound, the MIC (Lactobacillus reuteri; Lactobacillus reuteri ATCC 23272, BHI-ych, listed as Lolamycin) was over 128 µg/mL, the MIC (Lactobacillus reuteri; Limosilactobacillus reuteri, ATCC23272) was over 128 µg/mL and the MIC ([2]; Faecalibacterium prausnitzii ATCC 27768, BHI-ych, listed as Lolamycin) was over 128 µg/mL. For the same compound, the MIC ([2]; Faecalibacterium prausnitzii, ATCC27768) was over 128 µg/mL, the MIC ([3]; Stenotrophomonas maltophilia ATCC 13637, BHI-ych, listed as Lolamycin) was over 128 µg/mL and the MIC ([3]; Stenotrophomonas maltophilia, ATCC13637) was over 128 µg/mL. The MIC ([4]; E. coli BW25113 mutant D264N (LolE), selected at 32-fold MIC) was over 128 µg/mL, the MIC ([4]; E. coli BW25113 mutant E195K (LolC), selected at 32-fold MIC) was over 128 µg/mL and the MIC ([4]; E. coli BW25113 mutant E255D (LolC), selected at 32-fold MIC) was over 128 µg/mL. For the same compound, the MIC ([4]; E. coli BW25113 mutant F367S (LolE), selected at 32-fold MIC) was over 128 µg/mL, the MIC ([4]; E. coli BW25113 mutant I206N (LolE), selected at 32-fold MIC) was over 128 µg/mL and the MIC ([4]; E. coli BW25113 mutant M262I (LolC), selected at 32-fold MIC) was over 128 µg/mL. For the same compound, the MIC ([4]; E. coli BW25113 mutant N265K (LolC), selected at 32-fold MIC) was over 128 µg/mL, the MIC ([4]; E. coli BW25113 mutant Q258P (LolC), selected at 32-fold MIC) was over 128 µg/mL and the MIC ([4]; Escherichia coli, BW25113) was over 128 µg/mL.
